pIC50: −log10 of the molar value.

The assay in a line: Compound was evaluated for inhibitory activity against Isoleucyl-tRNA synthetase.
Turning to `COC(=O)CCCCCCCCOC(=O)/C=C/C[C@@H]1OC[C@H](NS(=O)(=O)c2cccc(Cl)c2)[C@@H](O)[C@H]1O` [9-{(E)-4-[(2S,3R,4R,5S)-5-(3-Chloro-benzenesulfonylamino)-3,4-dihydroxy-tetrahydro-pyran-2-yl]-but-2-enoyloxy}-nonanoic acid methyl ester], the negative logarithm of the IC50 (pIC50) (in general, the negative decadic logarithm of the IC50, by convention in mol/L) was 6.52. Consider `COC(=O)CCCCCCCCOC(=O)/C=C/C[C@@H]1OC[C@H](NS(=O)(=O)CCCCl)[C@@H](O)[C@H]1O` [9-{(E)-4-[(2S,3R,4R,5S)-5-(3-Chloro-propane-1-sulfonylamino)-3,4-dihydroxy-tetrahydro-pyran-2-yl]-but-2-enoyloxy}-nonanoic acid methyl ester], for which the pIC50 was 7.00. Regarding `CCCCS(=O)(=O)N[C@H]1CO[C@@H](C/C=C/C(=O)OCCCCCCCCC(=O)OC)[C@H](O)[C@@H]1O` [9-{(E)-4-[(2S,3R,4R,5S)-5-(Butane-1-sulfonylamino)-3,4-dihydroxy-tetrahydro-pyran-2-yl]-but-2-enoyloxy}-nonanoic acid methyl ester], the negative logarithm of the IC50 (pIC50) was 6.52.

The values are drawn from BindingDB's records for doi:10.1016/S0960-894X(97)10088-9 (1997).
